Like-named read-outs stand apart in the source and are kept apart here.
Experiments:
[1] = Acute toxicity in Wistar male mice; assay type: in vivo
Description: Each of 10 Wistar male mice, weighing 16-18 g, was administered with 7 g/kg of taurine (as an aqueous solution of 100 ml/kg).

[2] = system: patients with heart failure; assay type: in vivo, human patients; parameters: key to Severity After, Score: summed symptom/sign points; higher = worse heart failure; conditions: for Severity After, Score / Severity After, NYHA: 2 g twice daily, granules
Description: Twenty-four patients with heart failure were administered every day, two doses containing 2 g each of taurine as granules, and then monitored. The underlying cause of heart failure and the combined therapeutic agents (+: combined, -: not combined) for each patient are shown in Table 2. The therapeutic agents combined with taurine were standard agents which have long been used. Most of the patients had not been improved or have been even worsened under the therapeutic agents in Table 2, prior to the new therapeutic modality of this invention being used. The severity of heart failure was expressed by NYHA Function Class (I to IV, mild to severe according to New York Heart Association) and a score based on observation of clinical symptoms and signs as shown in Table 3. The presence of a symptom or sign was given the point value indicated in the right column and the values for each of the symptoms and signs were summed up for the score. An increase in the score corresponds to a worsening in the patient's heart condition. […]

guinea pigs = conditions: Dietrich & Diacono 1971; cited from earlier work
[3] = 7 g/kg as aqueous solution 100 ml/kg, 7 days observation, route not given

## NCCS(=O)(=O)O [taurine, 2-aminoethanesulfonic acid]
[1]; [3]
  behavioral changes: nor behavioral changes
  death: neither death
[1]; intravenous, same results = neither death nor behavioral changes
  death and behavioral changes: the same results were obtained
[2]; human, in vivo
  adverse reaction: without any adverse reaction
[2]; patient 1, week 20, before 7.5, with digitalis
  Severity After, Score: 2
[2]; patient 1, week 20, before II, with digitalis
  Severity After, NYHA: I
[2]; patient 2, week 4, before 6.5, with digitalis, diuretics
  Severity After, Score: 6.5
[2]; patient 3, week 8, before 13, with digitalis, diuretics
  Severity After, Score: 5
[2]; patient 4, week 32, before 12, with digitalis, diuretics, vasodilators
  Severity After, Score: 2.5
[2]; patient 4, week 32, before III, with digitalis, diuretics, vasodilators
  Severity After, NYHA: I
[2]; patient 5, week 8, before 10, with digitalis, diuretics
  Severity After, Score: 2.5
[2]; patient 6, week 8, before 5, no combined agent
  Severity After, Score: 2.5
[2]; patient 7, week 8, before 6, with digitalis, diuretics
  Severity After, Score: 3
[2]; patient 8, week 4, before 6, with digitalis, diuretics
  Severity After, Score: 5
[2]; patient 9, week 4, before 4, no combined agent
  Severity After, Score: 3
[2]; patient 10, week 4, before 9.5, with diuretics, vasodilators
  Severity After, Score: 5
[2]; patient 11, week 6, before 9.5, with diuretics, vasodilators
  Severity After, Score: 6
[2]; patient 12, week 2, before 3.5, no combined agent
  Severity After, Score: 3.5
[2]; patient 13, week 2, before 8.5, with diuretics
  Severity After, Score: 7.5
[2]; patient 14, week 2, before 3.5, with diuretics
  Severity After, Score: 3
[2]; patient 15, week 4, before 4.5, with diuretics
  Severity After, Score: 1
[2]; patient 16, week 4, before 5, with digitalis, diuretics, vasodilators
  Severity After, Score: 0.5
[2]; patient 17, week 4, before 9, with digitalis, diuretics
  Severity After, Score: 1
[2]; patient 18, week 4, before 13, with digitalis, diuretics
  Severity After, Score: 9
[2]; patient 19, week 4, before 5.5, with digitalis, diuretics
  Severity After, Score: 4.5
[2]; patient 20, week 2, before 5, with diuretics
  Severity After, Score: 3
[2]; patient 21, week 4, before 9.5, combined agent ambiguous (none / diuretics)
  Severity After, Score: 4
[2]; patient 22, week 4, before 4.5, with diuretics
  Severity After, Score: 3
[2]; patient 23, week 4, before 5.5, no combined agent
  Severity After, Score: 5.5
[2]; patient 24, week 4, before 9, with digitalis, diuretics
  Severity After, Score: 4
[2]; patients not controllable or worsened under prolonged conventional agents
  improvement with combined use of taurine: unexpectedly improved
[2]; patients with heart failure, general statement
  subjective symptoms and objective signs of heart failure: effectively ameliorates the subjective symptoms and objective signs of heart failure
Guinea pigs
  positive inotropic activity: positive inotropic activity

Source: patent US4565830A, “Method of ameliorating the subjective symptoms and objective signs in congestive heart failure” (priority 1981, dated 1986)
